{
  "source": "paper PMC8037182",
  "about": "“Solvothermal Synthesis of Multiple Dihydropyrimidinones at a Time as Inhibitors of Eg5” (Molecules, 2021)",
  "test_system": "Hela cell line",
  "assay": "Cytotoxicity MTS assay, Hela cell line;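 for OD490 value, Mean: blank control wells received 0.025% DMSO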;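 for OD490 value, Well 1: blank control wells received 0.025% DMSO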;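 for OD490 value, Well 2: blank control wells received 0.025% DMSO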;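 for OD490 value, Well 3: blank control wells received 0.025% DMSO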",
  "assay_type": "cell-based",
  "conditions": "for OD490 value, Mean / OD490 value, Well 1 / OD490 value, Well 2 / OD490 value, Well 3: Hela cell line, MTS",
  "how_it_was_run": "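Steps: plate 1000 cells per well; incubate 24 h; add compound (final 0.5 to 100 µM) or 0.025% DMSO blank for 24 h; add MTS reagent, hold 2 h at 37 °C in 5% CO2; read A490; fit percent viability against concentration by non-linear regression to obtain IC50.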",
  "data": [
    {"smiles": "CCOC(=O)c1[nH]c(C2NC(=S)NC(C)=C2C(=O)OC)c(C(=O)OCC)c1C", "note": "(stereo not shown) [D12]", "values": [
      {"measurement": "OD490 value, Mean", "setting": "0.5μM, first assay", "result": 2.4447},
      {"measurement": "OD490 value, Well 1", "setting": "0.5μM, first assay", "result": 2.5235},
      {"measurement": "OD490 value, Well 2", "setting": "0.5μM, first assay", "result": 2.4821},
      {"measurement": "OD490 value, Well 3", "setting": "0.5μM, first assay", "result": 2.3285},
      {"measurement": "OD490 value, Mean", "setting": "0.5μM, second assay", "result": 2.5426},
      {"measurement": "OD490 value, Well 1", "setting": "0.5μM, second assay", "result": 2.5366},
      {"measurement": "OD490 value, Well 2", "setting": "0.5μM, second assay", "result": 2.2547},
      {"measurement": "OD490 value, Well 3", "setting": "0.5μM, second assay", "result": 2.8365},
      {"measurement": "OD490 value, Mean", "setting": "0.5μM, third assay", "result": 2.6167},
      {"measurement": "OD490 value, Well 1", "setting": "0.5μM, third assay", "result": 2.6535},
      {"measurement": "OD490 value, Well 2", "setting": "0.5μM, third assay", "result": 2.5478},
      {"measurement": "OD490 value, Well 3", "setting": "0.5μM, third assay", "result": 2.6489},
      {"measurement": "OD490 value, Mean", "setting": "1μM, first assay", "result": 2.3871},
      {"measurement": "OD490 value, Well 1", "setting": "1μM, first assay", "result": 2.4815},
      {"measurement": "OD490 value, Well 2", "setting": "1μM, first assay", "result": 2.2707},
      {"measurement": "OD490 value, Well 3", "setting": "1μM, first assay", "result": 2.4090},
      {"measurement": "OD490 value, Mean", "setting": "1μM, second assay", "result": 2.5625},
      {"measurement": "OD490 value, Well 1", "setting": "1μM, second assay", "result": 2.5302},
      {"measurement": "OD490 value, Well 2", "setting": "1μM, second assay", "result": 2.5698},
      {"measurement": "OD490 value, Well 3", "setting": "1μM, second assay", "result": 2.5874},
      {"measurement": "OD490 value, Mean", "setting": "1μM, third assay", "result": 2.6475},
      {"measurement": "OD490 value, Well 1", "setting": "1μM, third assay", "result": 2.5896},
      {"measurement": "OD490 value, Well 2", "setting": "1μM, third assay", "result": 2.6985},
      {"measurement": "OD490 value, Well 3", "setting": "1μM, third assay", "result": 2.6543},
      {"measurement": "OD490 value, Mean", "setting": "10μM, first assay", "result": 2.6552},
      {"measurement": "OD490 value, Well 1", "setting": "10μM, first assay", "result": 2.5708},
      {"measurement": "OD490 value, Well 2", "setting": "10μM, first assay", "result": 2.6029},
      {"measurement": "OD490 value, Well 3", "setting": "10μM, first assay", "result": 2.7920},
      {"measurement": "OD490 value, Mean", "setting": "10μM, second assay", "result": 2.5779},
      {"measurement": "OD490 value, Well 1", "setting": "10μM, second assay", "result": 2.5898},
      {"measurement": "OD490 value, Well 2", "setting": "10μM, second assay", "result": 2.5741},
      {"measurement": "OD490 value, Well 3", "setting": "10μM, second assay", "result": 2.5698},
      {"measurement": "OD490 value, Mean", "setting": "10μM, third assay", "result": 2.6011},
      {"measurement": "OD490 value, Well 1", "setting": "10μM, third assay", "result": 2.5898},
      {"measurement": "OD490 value, Well 2", "setting": "10μM, third assay", "result": 2.6635},
      {"measurement": "OD490 value, Well 3", "setting": "10μM, third assay", "result": 2.5501},
      {"measurement": "OD490 value, Mean", "setting": "25μM, first assay", "result": 2.2305},
      {"measurement": "OD490 value, Well 1", "setting": "25μM, first assay", "result": 2.2367},
      {"measurement": "OD490 value, Well 2", "setting": "25μM, first assay", "result": 2.1978},
      {"measurement": "OD490 value, Well 3", "setting": "25μM, first assay", "result": 2.2571},
      {"measurement": "OD490 value, Mean", "setting": "25μM, second assay", "result": 2.5197},
      {"measurement": "OD490 value, Well 1", "setting": "25μM, second assay", "result": 2.5698},
      {"measurement": "OD490 value, Well 2", "setting": "25μM, second assay", "result": 2.5525},
      {"measurement": "OD490 value, Well 3", "setting": "25μM, second assay", "result": 2.4369},
      {"measurement": "OD490 value, Mean", "setting": "25μM, third assay", "result": 2.6373},
      {"measurement": "OD490 value, Well 1", "setting": "25μM, third assay", "result": 2.6859},
      {"measurement": "OD490 value, Well 2", "setting": "25μM, third assay", "result": 2.5363},
      {"measurement": "OD490 value, Well 3", "setting": "25μM, third assay", "result": 2.6896},
      {"measurement": "OD490 value, Mean", "setting": "50μM, first assay", "result": 2.5183},
      {"measurement": "OD490 value, Well 1", "setting": "50μM, first assay", "result": 2.3673},
      {"measurement": "OD490 value, Well 2", "setting": "50μM, first assay", "result": 2.6584},
      {"measurement": "OD490 value, Well 3", "setting": "50μM, first assay", "result": 2.5291},
      {"measurement": "OD490 value, Mean", "setting": "50μM, second assay", "result": 2.5474},
      {"measurement": "OD490 value, Well 1", "setting": "50μM, second assay", "result": 2.4652},
      {"measurement": "OD490 value, Well 2", "setting": "50μM, second assay", "result": 2.5569},
      {"measurement": "OD490 value, Well 3", "setting": "50μM, second assay", "result": 2.6201},
      {"measurement": "OD490 value, Mean", "setting": "50μM, third assay", "result": 2.5184},
      {"measurement": "OD490 value, Well 1", "setting": "50μM, third assay", "result": 2.4365},
      {"measurement": "OD490 value, Well 2", "setting": "50μM, third assay", "result": 2.5532},
      {"measurement": "OD490 value, Well 3", "setting": "50μM, third assay", "result": 2.5654},
      {"measurement": "OD490 value, Mean", "setting": "100μM, first assay", "result": 2.3367},
      {"measurement": "OD490 value, Well 1", "setting": "100μM, first assay", "result": 2.4110},
      {"measurement": "OD490 value, Well 2", "setting": "100μM, first assay", "result": 2.1799},
      {"measurement": "OD490 value, Well 3", "setting": "100μM, first assay", "result": 2.4192},
      {"measurement": "OD490 value, Mean", "setting": "100μM, second assay", "result": 2.4086},
      {"measurement": "OD490 value, Well 1", "setting": "100μM, second assay", "result": 2.3674},
      {"measurement": "OD490 value, Well 2", "setting": "100μM, second assay", "result": 2.4214},
      {"measurement": "OD490 value, Well 3", "setting": "100μM, second assay", "result": 2.4369},
      {"measurement": "OD490 value, Mean", "setting": "100μM, third assay", "result": 2.3047},
      {"measurement": "OD490 value, Well 1", "setting": "100μM, third assay", "result": 2.1753},
      {"measurement": "OD490 value, Well 2", "setting": "100μM, third assay", "result": 2.3324},
      {"measurement": "OD490 value, Well 3", "setting": "100μM, third assay", "result": 2.4065},
      {"measurement": "IC50", "setting": "MTS assay, 24 h exposure", "result": "> 150", "unit": "µM"}
    ]}
  ]
}
